Results published in BindingDB's records for doi:10.1016/j.bmcl.2008.08.104 (Genomics Institute of The Novartis Research Foundation, 2008).
pIC50: −log10 of the molar value.

How the values were obtained:
[1] = Inhibition of TEL fused Lck-mediated proliferation of TEL-Lck transformed mouse BA/F3 cells after 48 hrs by bright-glo luciferase assay
[2] = Inhibition of TEL fused Src-mediated proliferation of TEL-Src transformed mouse BA/F3 cells after 48 hrs by bright-glo luciferase assay
[3] = Inhibition of TEL fused KDR-mediated proliferation of TEL-KDR transformed mouse BA/F3 cells after 48 hrs by bright-glo luciferase assay
[4] = Inhibition of TEL fused Lyn-mediated proliferation of TEL-Lyn transformed mouse BA/F3 cells after 48 hrs by bright-glo luciferase assay
[5] = Inhibition of TEL fused InsR-mediated proliferation of TEL-InsR transformed mouse BA/F3 cells after 48 hrs by bright-glo luciferase assay

pIC50 [1]	Structure (SMILES)	further results
6.23	Cc1cc(C)c(Nc2nc3ccccc3n2-c2cc(N)ncn2)c(C)c1 [1-(6-aminopyrimidin-4-yl)-N-mesityl-1H-benzo[d]imidazol-2-amine]	–
–	Cc1nc(Nc2cc(-n3c(Nc4c(C)cccc4Cl)nc4ccccc43)ncn2)cc(N2CCN(CCO)CC2)n1 [2-(4-(6-(6-(2-(2-chloro-6-methylphenylamino)-1H-benzo[d]imidazol-1-yl)pyrimidin-4-ylamino)-2-methylpyrimidin-4-yl)piperazin-1-yl)ethanol]	pIC50 [2]: 8.30; pIC50 [3]: 6.45; pIC50 [4]: 7.52; pIC50 [5]: 5.63
5.30	CCN(CC)CCCCNc1cc(-n2c(Nc3c(C)cccc3Cl)nc3ccccc32)ncn1 [N-(2-chloro-6-methylphenyl)-1-(6-(4-(diethylamino)butylamino)pyrimidin-4-yl)-1H-benzo[d]imidazol-2-amine]	–
7.77	Cc1cccc(Cl)c1Nc1nc2ccccc2n1-c1cc(Nc2cc(CN3CCOCC3)ccn2)ncn1 [N-(2-chloro-6-methylphenyl)-1-(6-(4-(morpholinomethyl)pyridin-2-ylamino)pyrimidin-4-yl)-1H-benzo[d]imidazol-2-amine]	–
–	Cc1cccc(Cl)c1Nc1nc2ccccc2n1-c1cc(Nc2ccc(CCN3CCOCC3)cn2)ncn1 [N-(2-chloro-6-methylphenyl)-1-(6-(5-(2-morpholinoethyl)pyridin-2-ylamino)pyrimidin-4-yl)-1H-benzo[d]imidazol-2-amine]	pIC50 [2]: 6.83; pIC50 [3]: 5.99; pIC50 [4]: 6.67; pIC50 [5]: 5.29
< 5.00	Cc1cccc(Cl)c1Nc1nc2ccccc2n1-c1cc(N2CCOCC2)ncn1 [N-(2-chloro-6-methylphenyl)-1-(6-morpholinopyrimidin-4-yl)-1H-benzo[d]imidazol-2-amine]	–
5.24	Cc1cccc(Cl)c1Nc1nc2ccccc2n1-c1cc(Cl)ncn1 [N-(2-chloro-6-methylphenyl)-1-(6-chloropyrimidin-4-yl)-1H-benzo[d]imidazol-2-amine]	–
6.44	Cc1cccc(Cl)c1Nc1nc2ccccc2n1-c1cc(Nc2ncnc(NCCN3CCOCC3)c2C)ncn1 [N4-(6-(2-(2-chloro-6-methylphenylamino)-1H-benzo[d]imidazol-1-yl)pyrimidin-4-yl)-5-methyl-N6-(2-morpholinoethyl)pyrimidine-4,6-diamine]	–
5.93	Cc1cc(C)c(Nc2nc3ccccc3n2-c2cc(N)ncn2)c(Br)c1 [1-(6-aminopyrimidin-4-yl)-N-(2-bromo-4,6-dimethylphenyl)-1H-benzo[d]imidazol-2-amine]	–
< 5.00	Cc1cccc(Cl)c1Nc1nc2ccccc2n1-c1cc(NN2CCOCC2)ncn1 [N-(2-chloro-6-methylphenyl)-1-(6-(morpholinoamino)pyrimidin-4-yl)-1H-benzo[d]imidazol-2-amine]	–
